One series can be described thus: in vivo. The following applies: mouse, in vivo, po. As to the method: Male and female white mice (CFLP strain, 18-22 g) are used, 10 animals per dose. The test compounds are administered orally in a volume of 20 ml/kg. After administration the mice are observed for a period of 7 days. The animals are kept in plastic boxes, on wood litter, at room temperature. The animals receive standard mouse fodder and tap water ad libitum.

The subject of another series is acetic acid writhing. As to the kind of experiment: Acetic acid "writhing test" on mice (Newbould). The class given is in vivo, white mice. The following applies: for ED50: Mus musculus; for Therapeutical index: acetic acid writhing, LD50/ED50. As to the method:
In the period between the 5th and 10th minutes following the administration of acetic acid the number of the characteristic "writhing" responses is counted for each animal and the "total writhing number" (within 5 minutes) is expressed as the percentage of the value obtained for the control animals. The mice are treated with the test compound and the carrier, respectively, orally 1 hour before the administration of acetic acid. 12 animals are used per dose.
[Newbould, B. D.: Brit.

The test system of another series is pentetrazole spasm. As to the kind of experiment: Inhibition of pentetrazol spasm on mice. Conditions: for ED50: Mus musculus, po; for Therapeutical index: Table V, pentetrazole spasm, LD50/ED50.
Another series deals with motility. As to the kind of experiment: animal or person. In kind it is in vivo. The following applies: for ED50: Mus musculus, po; for Therapeutical index: Table II, motility inhibition, LD50/ED50. How it is done:
The test is accomplished according to the method of Borsy et al. in a 10-channel Dews system equipment, whereby 3 mice are used per channel. The test compound or the carrier, respectively, is administered orally, and one hour after the said treatment the animals are placed into the apparatus and the number of the interruptions of infrared radiation is registered for 30 minutes.
The results are summarized in Table II and documented by means of suitable statistics for each experiment.
[J. Borsy, E. Csanyi, I. Lazar: Arch. Int. Pharmacodyn. 124, 1 (1960)].

The subject of another series is hexobarbital narcosis. As to the kind of experiment: Hexobarbital narcosis potentiating effect. The following applies: for ED50: Mus musculus, po; for Therapeutical index LD50 /ED50: Table I, hexobarbital narcosis.
Series [1] relates to nicotine spasm and lethality. As to the kind of experiment: Inhibition of nicotine spasm and lethality on mice (Stone). The class given is in vivo. Conditions: Table VIII; for ED50: Mus musculus, oral, 1 h before nicotine 1.4 mg/kg i.v.; for Therapeutical index: nicotine spasm and lethality, LD50/ED50. The text has this:
[Stone, C. C., Mecklenburg, K. L., Torchiana, M. L.: Arch. Int.

The test system of a further series is yohimbin toxicity. As to the kind of experiment: animal or person. Conditions: for ED50: Mus musculus; for Therapeutical index: Table IV, yohimbin toxicity, LD50/ED50. How it is done: The test is carried out according to the method of Quinton. Groups consisting of 10 mice are used for each dose. The animal groups are treated with the suitable doses of the test compounds while the control group is treated with a carrier. An hour after the treatment a sublethal dose of yohimbin is administered intraperitoneally in a volume of 20 ml/kg. The perished animals are counted after 1 and 24 hours.

Setting [2] is: Table VII, oral, 1 h before acetic acid i.p., read-out: ED50.

Where two headings read alike, the source gives them in different places.

Experimental for hexobarbital narcosis: The test is carried out on white mice. Groups consisting of six mice are used for each dose and test compound. The test compound is administered orally and an hour after this treatment narcosis is induced by means of a 40 mg/kg i.v. dose of hexobarbital. The control group receives carrier instead of the test compound.
Those mice are considered to be having a positive reaction which show a narcosis time at least 2.5 times longer than that of the control group. The ED50 values thus transformed are calculated.
Experimental for pentetrazole spasm: The modified method of Benziger and Hane is used on white mice. Groups consisting of 6 animals are used for each dose. […] The test compounds are administered orally one hour before the treatment with pentetrazole; in the control group the animals obtain the carrier orally at the same points of time.
The therapeutical index data disclosed in the above Tables are calculated by means of the following equation: [formula]

`COc1ccc(/C=C/C2=CC(=N/OCC(C)CN(C)C)/CC(C)(C)C2)cc1` (racemic) [Example 25, D,L-5,5-Dimethyl-3-(E)-[(4'-methoxy-phenyl)-vinyl]-1-(E)-(2"-methyl-3"-dimethylamino-propoxyimino)-2-cyclohexane] gave an LD50 at 168 h in the series “in vivo” of 1300 mg/kg. The median effective dose (ED50) in the series with acetic acid writhing (po) is roughly 200 mg/kg; in the series on pentetrazole spasm, 15.5 mg/kg; with motility, roughly 200 mg/kg. For the same molecule, the Therapeutical index in the series with acetic acid writhing (Table VII) was found to be 65; with pentetrazole spasm, 83.9; in the series on motility, 6.5.
In “in vivo”, `CNC1=Nc2ccc(Cl)cc2C(c2ccccc2)=[N+]([O-])C1` [Chlordiazepoxid, reference compound] gave an LD50 at 168 h of 620 mg/kg. In the series on hexobarbital narcosis, the ED50 was 10 mg/kg and the “Therapeutical index LD50 /ED50” value amounted to 62.0.
In the series “in vivo”, `CN1CCN(CCCO/N=C2C=C(/C=C/c3ccccc3)CC(C)(C)C/2)CC1` [Example 2, 5,5-Dimethyl-3-(E)-phenyl-vinyl-1-(E)-(4'-methyl-1'-piperazinyl-propoxyimino)-2-cyclohexene] yielded an LD50 at 168 h of 2000 mg/kg. Also, the ED50 amounted to 78 mg/kg in series [1], 140 mg/kg in the series on pentetrazole spasm and 190 mg/kg with motility. For the same molecule, the Therapeutical index in series [1] is 25.6; with pentetrazole spasm, 14.3; with motility, 10.5.
In turn, `CN1CCN(CCCO/N=C2C=C(/C=C/c3ccc(Cl)cc3)CC(C)(C)C/2)CC1` [Example 4, 5,5-Dimethyl-3-(E)-[(4'-chloro-phenyl)-vinyl]-1-(E)-(4"-methyl-1"-piperazinyl-propoxyimino)-2-cyclohexene] gave an LD50 at 168 h in the series “in vivo” of 2000 mg/kg. In the series on pentetrazole spasm, this molecule showed an ED50 of 180 mg/kg and a Therapeutical index of 11.1.
In turn, `CN(C)CCCO/N=C1C=C(/C=C/c2ccc(Cl)cc2)CC(C)(C)C/1` [Example 5, 5,5-Dimethyl-3-(E)-[(4'-chloro-phenyl)-vinyl]-1-(E)-(3"-dimethylamino-propoxyimino)-2-cyclohexene] had an LD50 at 168 h in “in vivo” of 2000 mg/kg. Moreover, the ED50 in the series with acetic acid writhing (setting [2]) came out at 155 mg/kg; with pentetrazole spasm it was 125 mg/kg; in the series on motility, 120 mg/kg. Besides, the Therapeutical index in the series on acetic acid writhing (Table VII) came out at 12.9; in the series with pentetrazole spasm, 16.0; with motility it was 17.0.
For `CN(C)CCCO/N=C1C=C(/C=C/c2ccccc2Cl)CC(C)(C)C/1` [Example 9, 5,5-Dimethyl-3-(E)-[(2'-chloro-phenyl)-vinyl]-1-(E)-(3"-dimethylamino-propoxyimino)-2-cyclohexene], the LD50 at 168 h in the series “in vivo” is 2000 mg/kg. For the same molecule, the ED50 in the series on pentetrazole spasm worked out at 160 mg/kg; with yohimbin toxicity, 50 mg/kg. Also, the Therapeutical index with pentetrazole spasm amounted to 12.5; with yohimbin toxicity, 40.
In the case of `COc1ccc(/C=C/C2=CC(=N/OCCCN(C)C)/CC(C)(C)C2)cc1` [Example 11, 5,5-Dimethyl-3-(E)-[(4'-methoxy-phenyl)-vinyl]-1-(E)-(3"-dimethylamino-propoxyimino)-2-cyclohexene], the LD50 at 168 h in “in vivo” stood at 2000 mg/kg. Besides, in the series with hexobarbital narcosis, the ED50 amounted to 140 mg/kg and the “Therapeutical index LD50 /ED50” value is 14.3. In the series on pentetrazole spasm, this molecule had an ED50 of 78 mg/kg and a Therapeutical index of 25.6. For the same molecule, in the series on yohimbin toxicity, the ED50 was found to be 40 mg/kg and the Therapeutical index was 50.
Take `CC(C)N(CCO/N=C1C=C(/C=C/c2ccccc2)CC(C)(C)C/1)C(C)C` [Example 12]: the LD50 at 168 h in “in vivo” was 1000 mg/kg. The ED50 with acetic acid writhing (setting [2]) turned out to be 50 mg/kg; in the series on hexobarbital narcosis it was 100 mg/kg; with pentetrazole spasm it was 23 mg/kg. Moreover, the results for the Therapeutical index in the series with acetic acid writhing (Table VII) and with pentetrazole spasm were 20.0 and 43.5, respectively.
With `CC(C)N(CCO/N=C1C=C(/C=C/c2ccc(Cl)cc2)CC(C)(C)C/1)C(C)C` [Example 14, 5,5-Dimethyl-3-(E)-[(4'-chloro-phenyl)-vinyl]-1-(E)-2'"-[bis-(2"-methyl-ethyl)-amino-ethoxyimino]-2-cyclohexene], the median lethal dose (LD50) at 168 h in “in vivo” is 2000 mg/kg. Besides, in the series on pentetrazole spasm, the 50% effect level (ED50) was put at a dose of 70 mg/kg and the Therapeutical index was 28.5.
In “in vivo”, `CN(C)CCO/N=C1C=C(/C=C/c2ccc(Cl)cc2)CC(C)(C)C/1` [Example 15, 5,5-Dimethyl-3-(E)-[(4'-chloro-phenyl)-vinyl]-1-(E)-(2"-dimethylamino-ethoxyimino)-cyclohexene] displayed an LD50 at 168 h of 2000 mg/kg. In series [1], this molecule returned an ED50 of 70 mg/kg and a Therapeutical index of 28.6. Further, in the series on hexobarbital narcosis, the ED50 amounted to 25 mg/kg and the “Therapeutical index LD50 /ED50” value is listed as 80.0. In the series with pentetrazole spasm, this molecule showed an ED50 of 120 mg/kg and a Therapeutical index of 16.6.
In “in vivo”, `CC1(C)CC(/C=C/c2ccccc2)=CC(=N/OCCN2CCCCC2)/C1` [Example 16, 5,5-Dimethyl-3-(E)-phenyl-vinyl-1-(E)-(2'-N-piperidyl-ethyl)-oxyimino-2-cyclohexene] returned an LD50 at 168 h of 1850 mg/kg. Also, the ED50 came out at 70 mg/kg in series [1], 40 mg/kg in the series on hexobarbital narcosis, 185 mg/kg in the series with pentetrazole spasm and 150 mg/kg with motility. Also, the Therapeutical index came out at 26.4 in series [1], 10.0 in the series with pentetrazole spasm and 12.3 in the series with motility. In the series with hexobarbital narcosis, the “Therapeutical index LD50 /ED50” value is given as 46.0.
Molecule `CC1(C)CC(/C=C/c2ccccc2)=CC(=N/OCCN2CCOCC2)/C1` [Example 17, 5,5-Dimethyl-3-(E)-phenyl-vinyl-1-(E)-(N-morpholino-ethoxyimino)-2-cyclohexene] showed an LD50 at 168 h in “in vivo” of 1600 mg/kg. Besides, the ED50 was 40 mg/kg in series [1], 13 mg/kg with hexobarbital narcosis and 148 mg/kg with pentetrazole spasm. Also, the Therapeutical index in series [1] is 40.0; with pentetrazole spasm it was 10.8. In the series with hexobarbital narcosis, the “Therapeutical index LD50 /ED50” value was 123.0.
Turning to `CCN(CC)CCO/N=C1C=C(/C=C/c2ccc(OC)cc2)CC(C)(C)C/1` [Example 23, 5,5-Dimethyl-3-(E)-[(4'-methoxy-phenyl)-vinyl]-1-(E)-(2"-diethylamino-ethoxyimino)-2-cyclohexene], the LD50 at 168 h in “in vivo” stood at 1000 mg/kg. In addition, in the series with pentetrazole spasm, the ED50 stood at 58 mg/kg and the Therapeutical index was found to be 17.2.
The corresponding values for `CC1(C)CC(/C=C/c2ccc(Cl)cc2)=CC(=N/OCCCN2CCOCC2)/C1` [Example 24, 5,5-Dimethyl-3-(E)-[(4'-chloro-phenyl)-vinyl]-1-(E)-(N-morpholino-propoxyimino)-2-cyclohexane] are greater than 1000 mg/kg, 110 mg/kg and greater than 9.1.
In the series with yohimbin toxicity, `CN(C)CCCN1c2ccccc2CCc2ccccc21` [Imipramin, reference compound] registered an ED50 of 21 mg/kg.
Take `CCCC(C)(COC(N)=O)COC(N)=O` [Meprobamate, reference compound]: in the series with hexobarbital narcosis, the ED50 stood at 260 mg/kg and the “Therapeutical index LD50 /ED50” value came to 4.2. The molecule further yielded an ED50 in the series with motility of 270 mg/kg.
As for `CC(=O)Nc1ccc(O)cc1` [Paracetamol, reference compound], the ED50 with acetic acid writhing (setting [2]) worked out at 180 mg/kg.
On to `OC(CCN1CCCCC1)(c1ccccc1)C1CCCCC1` (stereo not drawn) [Trihexyphenidyl, reference compound], for which the ED50 in series [1] was 20 mg/kg.
In the series on yohimbin toxicity, `CCOc1ccccc1OCC1CNCCO1` (stereo not drawn) [Viloxazin, reference compound] displayed an ED50 of 20 mg/kg.

Source of the values: patent US4939142A, “Substituted styrene derivatives” (priority 1989, dated 1990).
